This note sets out measurements from ChEMBL document CHEMBL1201862, “PubChem BioAssay data set” (2004).

Common to all, as to experiment: NCI tumour cell line growth inhibition, 48 h
Experiment [1] has as its system COLO 205.
For experiment [2], the system named is A498.
Experiment [3] relates to A549.
Experiment [4] has as its system SK-MEL-28.
The subject of experiment [5] is OVCAR-8.
The test system of experiment [6] is CCRF-CEM.
Experiment [7] deals with CAKI-1.
In experiment [8] the test system is SN12C.
For experiment [9], the system named is 786-0.
Experiment [10] has as its system SF-268.
In experiment [11] the test system is SK-OV-3.
Experiment [12] deals with SNB-19.
Experiment [13] deals with DU-145.
The test system of experiment [14] is Malme-3M.
The subject of experiment [15] is MDA-MB-435.
The subject of experiment [16] is HL-60.
For experiment [17], the system named is EKVX.
Experiment [18] concerns K562.
The subject of experiment [19] is MCF7.
The subject of experiment [20] is NCI-H460.

The structures appear in SMILES notation.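 Assay format: 96-well plates, 48-hour exposure. GI50 = concentration required for 50% inhibition of growth.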 Active and inactive are the calls of the source. Rule as the data show it: active = GI50 up to about 1.1 µM and inactive = higher.

Regarding `COC(=O)C1=C(C(=O)OC)C(C(=O)OC)C(C(=O)OC)C(C(=O)OC)(C(=O)OC)C(C(=O)OC)=C1C(=O)OC` (stereo not given), the GI50 in experiment [1] was 4.27 µM (inactive); in experiment [2], 15.5 µM (inactive); in experiment [3] it was 21.2 µM (inactive); in [4] it was 15.1 µM (inactive); in experiment [5], 11.8 µM (inactive); in experiment [6] it was 2.77 µM (inactive). The GI50 in [7] is 15.1 µM (inactive); in experiment [8], 14.3 µM (inactive); in experiment [9] it was 9.14 µM (inactive); in [10], 19 µM (inactive); in experiment [11] it was 27 µM (inactive); in [12], 17.6 µM (inactive). Further, the GI50 in [13] is 18.2 µM (inactive); in experiment [14] it was 5.77 µM (inactive); in experiment [15] it was 18.7 µM (inactive); in experiment [16] it was 1.97 µM (inactive); in experiment [17], 18.3 µM (inactive); in experiment [18], 3.4 µM (inactive). Moreover, the GI50 in experiment [19] is 15.4 µM (inactive); in experiment [20], 19 µM (inactive).
`O=C(NCCCl)Nc1ccccc1`: the GI50 in [1], in [2], in experiment [3], in experiment [4], in experiment [5] and in [6] was > 100 µM (inactive) throughout. Moreover, the GI50 in experiment [7], in experiment [8], in experiment [9], in experiment [10], in experiment [11] and in experiment [12] was > 100 µM (inactive) each time. For the same molecule, the GI50 in experiment [13], in [14], in experiment [15], in [16], in [17] and in experiment [18] was > 100 µM (inactive) in each case. Also, the GI50 in [19] and in experiment [20] was > 100 µM (inactive) each time.
Consider `COc1ccc(C(=O)/C=C/c2ccc(OCC(=O)N3CCN(c4ccccc4)CC3)cc2)cc1`, for which the GI50 in [1] is > 64.6 µM (inactive); in experiment [2], 55.1 µM (inactive); in experiment [3], 51.6 µM (inactive); in experiment [4], > 100 µM (inactive); in experiment [5] it was 71 µM (inactive); in [6], > 35.6 µM (inactive). For the same molecule, the GI50 in experiment [7] is 77.8 µM (inactive); in experiment [8] it was > 65.9 µM (inactive); in experiment [9] it was 30.1 µM (inactive); in [10] it was 54 µM (inactive); in experiment [11], 29.1 µM (inactive); in experiment [12], 27.9 µM (inactive). Further, the GI50 in experiment [13] was > 100 µM (inactive); in experiment [14] it was > 80.7 µM (inactive); in [15], > 100 µM (inactive); in [16] it was > 35.6 µM (inactive); in experiment [17], > 70.5 µM (inactive); in experiment [18], > 60.5 µM (inactive). For the same molecule, the GI50 in [19] is 78.2 µM (inactive); in experiment [20], 82.4 µM (inactive).
For `Cc1ccc(Nc2c(C#N)[n+]([O-])c3cc(Cl)ccc3[n+]2[O-])cc1`, the GI50 in experiment [1] is 18.4 µM (inactive); in experiment [2], > 100 µM (inactive); in experiment [3], 23.8 µM (inactive); in experiment [4], > 100 µM (inactive); in [5] it was 11.7 µM (inactive); in [6], 3.23 µM (inactive). Besides, the GI50 in experiment [7] is 42 µM (inactive); in [8], > 33.2 µM (inactive); in experiment [9] it was 4.8 µM (inactive); in [10], 28.4 µM (inactive); in [11], 61.7 µM (inactive); in experiment [12] it was > 100 µM (inactive). Also, the GI50 in experiment [13] was > 100 µM (inactive); in [14], 79.3 µM (inactive); in experiment [15] it was 44.7 µM (inactive); in experiment [16], 3.44 µM (inactive); in [17], > 81.3 µM (inactive); in experiment [18], 11 µM (inactive). Further, the values for the GI50 in experiment [19] and in experiment [20] were 15.3 µM (inactive) and 9.31 µM (inactive), respectively.
As to `CCNC(=S)N/N=C(/C)c1cccc(/C(C)=N\NC(=S)NCC)n1`, the GI50 in experiment [1] is 1.08 µM (active); in experiment [2], 7.52 µM (inactive); in experiment [3], 0.719 µM (active); in [4] it was 2.38 µM (inactive); in [5], 0.345 µM (active); in experiment [6] it was 0.303 µM (active). The GI50 was 1.23 µM (inactive) in [7]; 1.46 µM (inactive) in experiment [8]; 1.5 µM (inactive) in experiment [9]; 0.59 µM (active) in experiment [10]; 2.63 µM (inactive) in experiment [11]; 5.48 µM (inactive) in [12]. Moreover, the GI50 in experiment [13] was 1.35 µM (inactive); in experiment [14] it was 2.44 µM (inactive); in experiment [15], 2.82 µM (inactive); in experiment [16] it was 0.57 µM (active); in [17] it was 1.11 µM (active); in experiment [18], 1.13 µM (inactive). In addition, the GI50 in experiment [19] was 0.689 µM (active); in [20], 0.31 µM (active).
Turning to `COC(=O)C1=C(\c2ccccc2)c2ccccc2C(=O)N(C2CCCCC2)/C=C\1`, the GI50 was 14.5 µM (inactive) in [1]; 30.1 µM (inactive) in [2]; 16 µM (inactive) in experiment [3]; 17.9 µM (inactive) in experiment [4]; 38.9 µM (inactive) in [5]; 12 µM (inactive) in [6]. Besides, the GI50 was 20.9 µM (inactive) in experiment [7]; 28.3 µM (inactive) in [8]; 34.6 µM (inactive) in [9]; 27.8 µM (inactive) in experiment [10]; 74.1 µM (inactive) in experiment [11]; 29 µM (inactive) in experiment [12]. Moreover, the GI50 is 60 µM (inactive) in experiment [13]; 25.3 µM (inactive) in experiment [14]; 17.9 µM (inactive) in experiment [15]; 21.3 µM (inactive) in experiment [16]; 52.6 µM (inactive) in experiment [17]; 4.59 µM (inactive) in experiment [18]. Also, the values for the GI50 in experiment [19] and in experiment [20] were 19.8 µM (inactive) and 16.1 µM (inactive), respectively.
As to `O=[N+]([O-])c1ccccc1S(=O)(=O)c1cc(O)cc2c1NCCC2`, the GI50 was 17.1 µM (inactive) in [1]; 13.9 µM (inactive) in experiment [2]; 29.8 µM (inactive) in experiment [3]; 18.7 µM (inactive) in [4]; 11.8 µM (inactive) in experiment [5]; 2.15 µM (inactive) in [6]. Besides, the GI50 was 35.2 µM (inactive) in experiment [7]; 21.1 µM (inactive) in experiment [8]; 12.1 µM (inactive) in experiment [9]; 20.7 µM (inactive) in experiment [10]; 17.9 µM (inactive) in experiment [11]; 28.5 µM (inactive) in [12]. Besides, the GI50 in experiment [13] is 20.7 µM (inactive); in [14], 17.4 µM (inactive); in experiment [15] it was 18.8 µM (inactive); in experiment [16] it was 3.47 µM (inactive); in experiment [17], 16.7 µM (inactive); in experiment [18], 2.68 µM (inactive). The GI50 in [19] is 7.45 µM (inactive); in experiment [20] it was 23.4 µM (inactive).
As for `Cc1c2oc3c(C)cnc(C(=O)NC4C(=O)NC(C(C)C)C(=O)N5CCCC5C(=O)N(C)CC(=O)N(C)C(C(C)C)C(=O)OC4C)c3nc-2c(C(=O)NC2C(=O)NC(C(C)C)C(=O)N3CCCC3C(=O)N(C)CC(=O)N(C)C(C(C)C)C(=O)OC2C)c(N)c1=O` (stereo not given), the GI50 in [1] is 1.8 µM (inactive); in [2], 6.18 µM (inactive); in [3], 3.37 µM (inactive); in [4] it was 1.67 µM (inactive); in experiment [5], 5.57 µM (inactive); in experiment [6], 0.121 µM (active). Further, the GI50 in experiment [7] is 10.9 µM (inactive); in [8], 1.36 µM (inactive); in experiment [9], 2.3 µM (inactive); in experiment [10] it was 0.789 µM (active); in experiment [11], 5.6 µM (inactive); in [12], 0.682 µM (active). The GI50 was 4.72 µM (inactive) in experiment [13]; 1.28 µM (inactive) in experiment [14]; 2.74 µM (inactive) in [15]; 0.769 µM (active) in experiment [16]; 15.4 µM (inactive) in experiment [17]; 0.231 µM (active) in experiment [18]. In addition, the GI50 in [19] was 0.805 µM (active); in experiment [20], 1.03 µM (active).
Take `Cc1cccc2c1C(=O)[C@](C)([C@]1(C)Nc3cccc(C)c3C1=O)N2`: the GI50 was 19.7 µM (inactive) in [1]; 60.5 µM (inactive) in experiment [2]; 26.4 µM (inactive) in experiment [3]; 37.6 µM (inactive) in [4]; 24 µM (inactive) in experiment [5]; 17.6 µM (inactive) in experiment [6]. Further, the GI50 in experiment [7] is 27.4 µM (inactive); in experiment [8], 29.6 µM (inactive); in experiment [9], 39.4 µM (inactive); in [10], 16.1 µM (inactive); in experiment [11] it was 21.7 µM (inactive); in [12] it was 27.3 µM (inactive). Further, the GI50 in experiment [13] was 54.1 µM (inactive); in experiment [14], 36.3 µM (inactive); in [15], 15.7 µM (inactive); in experiment [16], < 0.01 µM (active); in [17] it was 23.7 µM (inactive); in experiment [18], 30.8 µM (inactive). The GI50 was 45.4 µM (inactive) in experiment [19] and 31 µM (inactive) in [20].
`O=C(c1cccs1)N(C(=O)N1CCN(c2ccccc2)CC1)S(=O)(=O)c1ccccc1`: the GI50 was 16.4 µM (inactive) in experiment [1]; 62.2 µM (inactive) in [2]; 32.8 µM (inactive) in experiment [3]; 22.4 µM (inactive) in experiment [4]; 18.6 µM (inactive) in experiment [5]; 20.8 µM (inactive) in [6]. The GI50 in experiment [7] was 21.2 µM (inactive); in [8] it was 17.5 µM (inactive); in experiment [9] it was 23.2 µM (inactive); in [10] it was 27.3 µM (inactive); in experiment [11], 46.6 µM (inactive); in [12], 27 µM (inactive). Besides, the GI50 in [13] was 16.5 µM (inactive); in experiment [14], 19.8 µM (inactive); in experiment [15] it was 25.2 µM (inactive); in experiment [16], 19.4 µM (inactive); in experiment [17], 16.7 µM (inactive); in experiment [18] it was 25.1 µM (inactive). In addition, the GI50 in experiment [19] was 27.4 µM (inactive); in [20], 28.2 µM (inactive).
